Source: patent US20060009425A1, “Oral formulations of paricalcitol” (priority 2004, published 2006)

Tested on: biochemical bone activity markers
Experiment: Combined Phase 3 studies, biochemical bone activity markers
Format: in vivo, human
Excerpt: Serum bone-specific alkaline phosphate and serum osteocalcin are considered more sensitive bone markers to evaluate degree of bone remodeling than urinary bone marker. […] These subjects received treatment with the oral formulations of the present invention or a placebo. The bone markers examined in these subjects were serum osteocalcin, serum bone-specific alkaline phosphatase, urinary pyridinoline, and deoxypyridinoline. If more than 1 biochemical bone activity marker measurement existed for a subject on a particular day, the higher measurement was considered to be that subject's biochemical bone activity marker measurement for that day. […] The Final Visit measurement was defined as the last biochemical bone activity marker measurement following the first dose of study drug.
The Week 11 Visit measurement was defined as the biochemical bone activity marker measurement on the day closest to the Week 11 scheduled visit, for which the possible measurements to choose from were those collected within 64 and 77 days following the first dose of study drug.
Changes from baseline to Week 11 Visit and to Final Visit in biochemical bone activity markers were compared between oral paricalcitol and placebo using an ANOVA with treatment as the factor on the combined Phase 3 all treated subject population (Table F). Also, the changes from baseline to Week 11 Visit and to Final Visit were compared between oral paricalcitol and placebo using an ANCOVA with baseline as the second factor on the combined Phase 3 all treated subject population (Table G).
In this example, paricalcitol capsules were evaluated in 3 double-blind, placebo-controlled multicenter studies in CKD stage 3-4 subjects with 2° HPT; 2 of these studies were conducted with TIW dosing and 1 was done with QD dosing. Subjects with eGFR (MDRD formula) 15-60 ml/min/1.73 m^2, iPTH ≧150 pg/mL, serum Ca 8.0-10.0 mg/dL and PO4≦5.2 mg/dL were randomized 1:1 and treated with paricalcitol capsule or placebo for 24 weeks. A total of 145 subjects used TIW regimen (paricalcitol: 72; placebo: 73) and 75 subjects (paricalcitol: 35; placebo: 40) used QD regimen. After the initial doses, doses were titrated based on serum Ca, P and iPTH results that were measured every 2 weeks; dose increases occurred once every 4 weeks and decreases every 2 weeks. Dosing administrations are shown below in Table 18.

[1] = Phase 3 studies combined, all treated subjects
[2] = Phase 3 studies combined, all treated subjects, listed as Oral Paricalcitol
[3] = Phase 3 studies combined, all treated subjects, listed as oral paricalcitol
[4] = Phase 3 studies, TIW Treatment Regimen

SMILES: C[C@H](/C=C/[C@H](C)C(C)(C)O)[C@H]1CC[C@H]2/C(=C/C=C3C[C@@H](O)C[C@H](O)C3)CCC[C@]12C [Paricalcitol, 19-nor-1α,3β,25-trihydroxy-9,10-secoergosta-5(Z); 7(E),22(E)-triene]
- Serum Osteocalcin, Change from Baseline (SE) to Week 11 [1]: −3.94 (2.431) ng/mL
- Urinary Deoxypyridinoline, Change from Baseline (SE) to Final [1]: −0.0058 (0.00514) nmol/mg Creat
- Urinary Pyridinoline, Change from Baseline (SE) to Week 11 [1]: −5.21 (1.938) nmol/mmol Creat
- Serum Bone-Specific Alkaline Phosphatase, Change from Baseline (SE) to Final [2]: −7.890 (0.7596) mcg/L
- Serum Bone-Specific Alkaline Phosphatase, Change from Baseline (SE) to Week 11 [2]: −5.024 (0.6279) mcg/L
- Serum Osteocalcin, Change from Baseline (SE) to Final [2]: −21.64 (2.706) ng/mL
- Urinary Deoxypyridinoline, Change from Baseline (SE) to Week 11 [2]: −0.0155 (0.00433) nmol/mg Creat
- Urinary Pyridinoline, Change from Baseline (SE) to Final [2]: −3.61 (1.896) nmol/mmol Creat
- Serum Bone-Specific Alkaline Phosphatase, Change from Baseline (SE) to Final [3]: -7.89 µg/L
- Serum Bone-Specific Alkaline Phosphatase, Change from Baseline (SE) to Week 11 [3]: -5.024 µg/L
- Serum Osteocalcin, Change from Baseline (SE) to Final [3]: -21.64 ng/mL
- Urinary Deoxypyridinoline, Change from Baseline (SE) to Week 11 [3]: −0.0155 nmol/mg Creat
- Urinary Pyridinoline, Change from Baseline (SE) to Final [3]: −3.61 nmol/mmol Creat
- Serum Bone-Specific Alkaline Phosphatase, Change from Baseline (SE) to Final [4]: −8.043 (0.9033) mcg/L
- Serum Bone-Specific Alkaline Phosphatase, Change from Baseline (SE) to Week 11 [4]: −4.869 (0.7835) mcg/L
- Serum Osteocalcin, Change from Baseline (SE) to Final [4]: −18.96 (2.944) ng/mL
- Serum Osteocalcin, Change from Baseline (SE) to Week 11 [4]: −5.53 (2.720) ng/mL
- Urinary Deoxypyridinoline, Change from Baseline (SE) to Final [4]: −0.0130 (0.00357) nmol/mg Creat
- Urinary Deoxypyridinoline, Change from Baseline (SE) to Week 11 [4]: −0.0129 (0.00426) nmol/mg Creat
- Urinary Pyridinoline, Change from Baseline (SE) to Final [4]: −5.47 (1.789) nmol/mmol Creat
- Urinary Pyridinoline, Change from Baseline (SE) to Week 11 [4]: −5.19 (2.213) nmol/mmol Creat
- Bone Spec. Alk Phos, Mean Change from Baseline (QD Regimen, N = 33 (Table 20)): −7.6 (1.40) mcg/L
- Serum Osteocalcin, Mean Change from Baseline (QD Regimen, N = 33 (Table 20)): −27.1 (5.54) ng/mL
- Serum Osteocalcin, Mean Change from Baseline (TIW Regimen, N = 67 (Table 20)): −19.0 (2.94) ng/mL
- Bone Spec. Alk Phos, Mean Change from Baseline (TIW Regimen, N = 68 (Table 20)): −8.0 (0.90) mcg/L
